# US9078446B2, “Use of N-(tetrazol-4-yl)- or N-(triazol-3-yl)arylcarboxamides or their salts for controlling unwanted plants in areas of transgenic crop plants being tolerant to HPPD inhibitor herbicides” (BAYER INTELLECTUAL PROPERTY GMBH, priority 2011, dated 2015)
# Tests used:
# Type in all cases: in vivo
# [1] = test system: cotton plants expressing FMP 27 and FMP 37; assay: Tolerance to HPPD inhibitors of cotton plants expressing tolerant HPPD enzymes; conditions: T1 cotton plants; one week after application
# Text: (§1) Genes coding for the selected HPPD were obtained from a member of the group of organisms consisting of Blepharisma japonicum and Kordia algicida and cloned into an appropriate binary vector allowing the integration of DNA into the cotton genome, under the control of the CaMV35S promoter. For the respective cloning procedures, see WO2011076882 (PCT/EP2010/070567), Example 11; for Blepharisma japonicum (FMP37) and WO2011076889 (PCT/EP2010/070575), Example 11 for Kordia algicida (FMP27).
# Between the sequence corresponding to the promoter and the sequence coding for the HPPD a DNA sequence coding for a transit peptide to the chloroplast was inserted, in order to add at the N-terminal extremity of the protein a target signal to allow the localization of the HPPD protein into the plant chloroplast. Cotton transformation was achieved as described in Example 12 of WO2011076882 (PCT/EP2010/070567) for Blepharisma japonicum (FMP37) and WO2011076889 (PCT/EP2010/070575) for Kordia algicida (FMP27). Seeds from T0 events showing tolerance to tembotrione were harvested.
# T1 Cotton seeds were transferred to single pots and grown under standard cultivation conditions, see WO2011076882 (PCT/EP2010/070567) for Blepharisma japonicum (FMP37) and WO2011076889 (PCT/EP2010/070575) for Kordia algicida (FMP27).
# At least 4 weeks later, plants will be sprayed with several N-(tetrazol-4-yl)- or N-(triazol-3-yl)arylcarboxamides as defined above.
# [2] = test system: transgenic tobacco plants expressing mutant Pseudomonas fluorescens HPPD G336W (PfHPPD-G336W); assay: Symptoms due to herbicide application on transgenic tobacco plants (damage classes 0-3); conditions: PfHPPD-G336W line 646; 50 g Al/ha; one week after application
# Text: (§2) Genes coding for the selected HPPD were obtained from a member of the group of organisms consisting of Avena sativa, Pseudomonas fluorescens mutant G336W, Blepharisma japonicum and Kordia algicida and cloned into the binary vector pBin19 allowing the integration of DNA into the tobacco genome, under the control of the CaMV35S promoter. For the cloning procedures, see A2 above for Avena sativa, see B2 above for Pseudomonas fluorescens, mutant G336W, see PCT/EP2010/070567 (published as WO 2011/076882, Example 5; for Blepharisma japonicum (FMP37) and see PCT/EP2010/070575, Example 5 for Kordia algicida (FMP27). Between the sequence corresponding to the promoter and the sequence coding for the HPPD a DNA sequence coding for a transit peptide to the chloroplast was inserted, in order to add at the N-terminal extremity of the protein a target signal to allow the localization of the HPPD protein into the plant chloroplast.
# (§3) Seeds harvested from TO transformants will be put on standard soil for germination. Three weeks later plantlets (T1) will be transferred to single pots and grown under standard cultivation conditions (PCT/EP2010/070575, published as WO 2011/076889). Two weeks later, plants were sprayed with several N-(tetrazol-4-yl)- or N-(triazol-3-yl)arylcarboxamides as defined above.
# (§4) Tables F1 to F5: Evaluation of the Symptoms Observed Due to the Application of the Herbicides on Transgenic Tobacco Plants, Expressing the Mutant Pseudomonas fluorescens HPPD G336W, the Avena HPPD (AvHPPD), the HPPD from Kordia algicida FMP27 or the HPPD from Blepharisma japonicum (FMP37), Compared to Non-Tranformed Tobacco Plants (“Wt”).
# (§5) The herbicides (with “g Al/ha” meaning “g active ingredient/ha”) were applied on 8 to 10 plants originated from 1 to 3 independent transgenic events per transgene.
# (§6) The symptoms were evaluated and classified as following: • 3=Very strong damage • 2=Strong damage • 1=Light and transient damage • 0=No damage
# [3] = test system: transgenic tobacco plants expressing Avena HPPD (AvHPPD); assay: as above; conditions: AvHPPD line 659; 50 g Al/ha; one week after application
# Text: as §2, §3, §4, §5, §6
# [4] = test system: transgenic tobacco plants expressing HPPD from Kordia algicida FMP27; assay: as above; conditions: 50 g Al/ha, one week after application
# Text: as §2, §3, §4, §5, §6
# [5] = test system: transgenic tobacco plants expressing HPPD from Blepharisma japonicum (FMP37); assay: as above; conditions: 50 g Al/ha, one week after application
# Text: as §2, §3, §4, §5, §6
# [6] = test system: non-transformed tobacco plants (Wt); assay: Symptoms due to herbicide application on tobacco plants (damage classes 0-3); conditions: 50 g Al/ha, one week after application
# Text: as §3, §4, §5, §6
# [7] = test system: soybean plants expressing Pseudomonas fluorescens G336W mutant, FMP 27 and FMP 37; assay: Tolerance to HPPD inhibitors of soybean plants expressing tolerant HPPD enzymes; conditions: T1 soybean plants; one week after application
# Text: as §1, with “the soybean” for “the cotton”, “Example 9;” for “Example 11;”, “Example 9” for “Example 11”
# Between the sequence corresponding to the promoter and the sequence coding for the HPPD a DNA sequence coding for a transit peptide to the chloroplast was inserted, in order to add at the N-terminal extremity of the protein a target signal to allow the localization of the HPPD protein into the plant chloroplast. By using the vectors “pFCO112” (Blepharisma japonicum, WO2011076882), pFCO116 (Korida algicida, WO2011076889), and pFCO117” (see Example B2, above), soybean transformation was achieved as described in Example 10 of WO2011076882 (PCT/EP2010/070567) for Blepharisma japonicum (FMP37) and WO2011076889 (PCT/EP2010/070575) for Kordia algicida (FMP27). Seeds from TO events showing tolerance to tembotrione were harvested.
# T1 Soybean seeds were transferred to single pots and grown under standard cultivation conditions, see WO2011076882.
# Two weeks later, plants will be sprayed with several N-(tetrazol-4-yl)- or N-(triazol-3-yl)arylcarboxamides as defined above.
# [8] = test system: transgenic tobacco plants expressing tolerant HPPD enzymes; assay: Tolerance of tobacco plants expressing tolerant HPPD enzymes (all transgenes)
# Text: as §2, §3, §4, §5, §6
compound,measurement,setting,value
CCOc1c(S(C)(=O)=O)ccc(C(=O)Nc2nnnn2C)c1Cl [Compound 4-278],tolerance of transgenic plants compared to the wild-type cotton plants,[1],superior tolerance
same,number of plants with Damage 0 (No damage),[2],6
same,number of plants with Damage 1 (Light and transient damage),[2],3
same,number of plants with Damage 2 (Strong damage),[2],0
same,number of plants with Damage 3 (Very strong damage),[2],1
same,number of plants with Damage 0 (No damage),[3],9
same,number of plants with Damage 1 (Light and transient damage),[3],0
same,number of plants with Damage 2 (Strong damage),[3],0
same,number of plants with Damage 3 (Very strong damage),[3],1
same,number of plants with Damage 0 (No damage),[4]; FMP27 line 733,6
same,number of plants with Damage 1 (Light and transient damage),[4]; FMP27 line 733,4
same,number of plants with Damage 2 (Strong damage),[4]; FMP27 line 733,0
same,number of plants with Damage 3 (Very strong damage),[4]; FMP27 line 733,0
same,number of plants with Damage 0 (No damage),[4]; FMP27 line 734,6
same,number of plants with Damage 1 (Light and transient damage),[4]; FMP27 line 734,3
same,number of plants with Damage 2 (Strong damage),[4]; FMP27 line 734,0
same,number of plants with Damage 3 (Very strong damage),[4]; FMP27 line 734,1
same,number of plants with Damage 0 (No damage),[4]; FMP27 line 735,6
same,number of plants with Damage 1 (Light and transient damage),[4]; FMP27 line 735,2
same,number of plants with Damage 2 (Strong damage),[4]; FMP27 line 735,0
same,number of plants with Damage 3 (Very strong damage),[4]; FMP27 line 735,2
same,number of plants with Damage 0 (No damage),[5]; FMP37 line 749,5
same,number of plants with Damage 1 (Light and transient damage),[5]; FMP37 line 749,4
same,number of plants with Damage 2 (Strong damage),[5]; FMP37 line 749,0
same,number of plants with Damage 3 (Very strong damage),[5]; FMP37 line 749,1
same,number of plants with Damage 0 (No damage),[5]; FMP37 line 754,5
same,number of plants with Damage 1 (Light and transient damage),[5]; FMP37 line 754,4
same,number of plants with Damage 2 (Strong damage),[5]; FMP37 line 754,0
same,number of plants with Damage 3 (Very strong damage),[5]; FMP37 line 754,1
same,number of plants with Damage 0 (No damage),[5]; FMP37 line 795,4
same,number of plants with Damage 1 (Light and transient damage),[5]; FMP37 line 795,3
same,number of plants with Damage 2 (Strong damage),[5]; FMP37 line 795,0
same,number of plants with Damage 3 (Very strong damage),[5]; FMP37 line 795,3
same,number of plants with Damage 0 (No damage),[6],0
same,number of plants with Damage 1 (Light and transient damage),[6],0
same,number of plants with Damage 2 (Strong damage),[6],0
same,number of plants with Damage 3 (Very strong damage),[6],10
same,tolerance of transgenic plants compared to the wild-type soybean plants,[7],superior tolerance
same,tolerance of the transgenic tobacco plants (symptoms due to application of the herbicide),"[8]; T1 plants sprayed, evaluated one week after application",good tolerance
same,sensitivity of transgenic tobacco plants compared to wild type (wt) plants,"[8]; all tested independent lines, agronomically relevant dose",less sensitive
